Assay results: article PMC7611903, “DYW domain structures imply an unusual regulation principle in plant organellar RNA editing catalysis” (Nature catalysis, 2021)
Where a chain is given by its changes, count along the chain named.

Assays:
PPR56 = molecular target: T1, PPR56 (Physcomitrium patens, UniProt A0A2K1IWP1); experiment: in vitro C-to-U RNA editing, RT-PCR sequencing; type: biochemical; conditions: nad4 RNA substrate, pH 7.5, 16 °C, activator
T1 construct: gene LOC112295756; recombinant from pETG41K::PPR56 (His-MBP fusion), amylose-purified from E. coli; tag kept; PPR tract, E1, E2 and DYW domain
T1 sequence (A0A2K1IWP1 entry or part of it): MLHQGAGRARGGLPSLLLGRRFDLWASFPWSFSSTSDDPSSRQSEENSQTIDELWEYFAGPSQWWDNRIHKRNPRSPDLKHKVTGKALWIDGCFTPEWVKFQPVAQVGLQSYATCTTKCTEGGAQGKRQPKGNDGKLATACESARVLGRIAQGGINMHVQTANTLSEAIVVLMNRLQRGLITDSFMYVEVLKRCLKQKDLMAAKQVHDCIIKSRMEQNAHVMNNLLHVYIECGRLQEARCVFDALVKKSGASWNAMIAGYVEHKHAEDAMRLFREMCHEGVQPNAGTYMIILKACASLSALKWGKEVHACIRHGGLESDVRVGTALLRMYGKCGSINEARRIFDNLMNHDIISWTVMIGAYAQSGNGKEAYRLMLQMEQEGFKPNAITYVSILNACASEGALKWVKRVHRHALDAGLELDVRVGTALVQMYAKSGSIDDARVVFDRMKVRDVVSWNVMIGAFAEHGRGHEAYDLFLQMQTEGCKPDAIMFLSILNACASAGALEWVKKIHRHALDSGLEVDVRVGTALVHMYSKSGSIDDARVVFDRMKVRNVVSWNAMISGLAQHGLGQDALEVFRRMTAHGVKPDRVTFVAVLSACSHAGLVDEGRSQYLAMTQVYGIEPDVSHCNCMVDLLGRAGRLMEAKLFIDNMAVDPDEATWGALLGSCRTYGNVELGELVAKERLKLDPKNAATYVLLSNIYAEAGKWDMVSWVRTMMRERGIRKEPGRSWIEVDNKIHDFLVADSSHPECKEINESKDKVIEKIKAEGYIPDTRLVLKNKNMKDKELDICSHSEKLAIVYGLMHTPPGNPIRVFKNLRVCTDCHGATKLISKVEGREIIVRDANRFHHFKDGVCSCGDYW

OTP86^DYW [1] = molecular target: T2, OTP86^DYW (Arabidopsis thaliana, UniProt Q9M1V3); experiment: differential scanning fluorimetry (SYPRO orange); type: binding; conditions: 20 mM Tris pH 7.5, 150 mM NaCl, destabilizing
T2 construct: gene PCMP-H83; isolated DYW domain, residues 826-960; N-terminal Strep-tag cut by TEV, GAM left; E. coli Rosetta2 (DE3); about 15 kDa, monomer
T2 sequence (Q9M1V3 826-960): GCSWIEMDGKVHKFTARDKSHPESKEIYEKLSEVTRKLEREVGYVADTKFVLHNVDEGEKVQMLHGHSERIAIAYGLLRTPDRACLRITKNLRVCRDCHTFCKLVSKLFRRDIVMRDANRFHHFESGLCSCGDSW

OTP86^DYW [2] = molecular target: T3, OTP86^DYW (Arabidopsis thaliana, UniProt Q9M1V3, H892C); experiment: differential scanning fluorimetry (SYPRO orange); type: binding; conditions: 20 mM Tris pH 7.5, 150 mM NaCl; destabilizing
T3 construct: gene PCMP-H83; isolated DYW domain, residues 826-960; N-terminal Strep-tag cut by TEV, GAM left; E. coli Rosetta2 (DE3); about 15 kDa, monomer
T3 sequence (Q9M1V3 826-960 H892C): T2 sequence (Q9M1V3 826-960) with H67C

OTP86^DYW [3] = molecular target: T4, OTP86^DYW (Arabidopsis thaliana, UniProt Q9M1V3, L917A); experiment: differential scanning fluorimetry (SYPRO orange); type: binding; conditions: 20 mM Tris pH 7.5, 150 mM NaCl; destabilizing
T4 construct: gene PCMP-H83; isolated DYW domain, residues 826-960; N-terminal Strep-tag cut by TEV, GAM left; E. coli Rosetta2 (DE3); about 15 kDa, monomer
T4 sequence (Q9M1V3 826-960 L917A): T2 sequence (Q9M1V3 826-960) with L92A

OTP86^DYW [4] = molecular target: T5, OTP86^DYW (Arabidopsis thaliana, UniProt Q9M1V3, K915A); experiment: differential scanning fluorimetry (SYPRO orange); type: binding; conditions: 20 mM Tris pH 7.5, 150 mM NaCl; destabilizing
T5 construct: gene PCMP-H83; isolated DYW domain, residues 826-960; N-terminal Strep-tag cut by TEV, GAM left; E. coli Rosetta2 (DE3); about 15 kDa, monomer
T5 sequence (Q9M1V3 826-960 K915A): T2 sequence (Q9M1V3 826-960) with K90A

Row | Structure (SMILES) | in vitro C-to-U RNA editing, RT-PCR sequencing (PPR56) | Tm (OTP86^DYW [2]) | Tm (OTP86^DYW [3]) | further results
1 | Nc1nc2c(ncn2[C@@H]2O[C@H](COP(=O)(O)OP(=O)(O)OP(=O)(O)O)[C@@H](O)[C@H]2O)c(=O)[nH]1 [GTP] | GTP also activate both PPR proteins in a concentration-dependent manner |  |  | Tm (OTP86^DYW [1]; 2 mM GTP, reversible, activator): 65.3 °C
2 | Nc1ncnc2c1ncn2[C@@H]1O[C@H](COP(=O)(O)OP(=O)(O)OP(=O)(O)O)[C@@H](O)[C@H]1O [ATP] |  | we assessed the T m of H892C in the presence of the activators | a milder effect with ATP comparable to wild type was observed | in vitro C-to-U RNA editing, RT-PCR sequencing (PPR56; may be allosteric): ATP activates PPR56 and PPR56^PPRE1E2–OTP86^DYW in a concentration-dependent fashion; Tm (OTP86^DYW [1]; 2 mM ATP, reversible, activator): 65 °C
3 | O=C1NC(O)CCN1[C@@H]1O[C@H](CO)[C@@H](O)[C@H]1O (stereo partly drawn) [tetrahydrouridine] | THU increases deaminase activity markedly for both proteins in a concentration-dependent manner | The H892C mutant closely resembles the wild-type protein regarding activation, albeit less pronounced | The L917A mutation showed a prominent decrease in T m when THU was added | Tm (OTP86^DYW [1]; reversible, activator): 60 °C; Tm (OTP86^DYW [4]): this effect is less severe with the K915A mutation
4 | Nc1ncnc2c1ncn2[C@@H]1O[C@H](COP(=O)(O)OP(=O)(O)CP(=O)(O)O)[C@@H](O)[C@H]1O [AMPPCP] |  |  |  | Tm (OTP86^DYW [1]; non-hydrolysable ATP analogue): 68 °C
